In PubChem BioAssay (NCI):
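Five compound concentrations were applied to cells in 96-well plates for 48 hours; endpoints were derived by simple linear interpolation of the resulting dose-response curve. GI50 = concentration required for 50% inhibition of growth. TGI denotes the concentration required for complete inhibition of growth.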

Key:
Assay in all cases: NCI anticancer screen, dose series, 48 h
[1] = test system: 786-0 renal
[2] = test system: A498 renal
[3] = test system: A549 NSCLC
[4] = test system: ACHN renal
[5] = test system: BT-549 breast
[6] = test system: CAKI-1 renal
[7] = test system: CCRF-CEM leukemia
[8] = test system: COLO 205 colon
[9] = test system: DU-145 prostate
[10] = test system: EKVX NSCLC
[11] = test system: HCC-2998 colon
[12] = test system: HCT-116 colon
[13] = test system: HCT-15 colon
[14] = test system: HL-60(TB) leukemia
[15] = test system: HOP-62 NSCLC
[16] = test system: HOP-92 NSCLC
[17] = test system: HS 578T breast
[18] = test system: HT29 colon
[19] = test system: IGROV1 ovarian
[20] = test system: K-562 leukemia
[21] = test system: KM12 colon
[22] = test system: LOX IMVI melanoma
[23] = test system: M14 melanoma
[24] = test system: MALME-3M melanoma
[25] = test system: MCF7 breast
[26] = test system: MDA-MB-435
[27] = test system: MDA-MB-468 breast
[28] = test system: MOLT-4 leukemia
[29] = test system: NCI-H226 lung
[30] = test system: NCI-H23 lung
[31] = test system: NCI-H460 lung
[32] = test system: NCI-H522 lung
[33] = test system: NCI/ADR-RES ovarian
[34] = test system: OVCAR-3 ovarian
[35] = test system: OVCAR-4 ovarian
[36] = test system: OVCAR-5 ovarian
[37] = test system: OVCAR-8 ovarian
[38] = test system: PC-3 prostate
[39] = test system: RPMI-8226 leukemia
[40] = test system: RXF 393 renal
[41] = test system: SF-268 CNS
[42] = test system: SF-295 CNS
[43] = test system: SF-539 CNS
[44] = test system: SK-MEL-28 melanoma
[45] = test system: SK-MEL-5 melanoma
[46] = test system: SK-OV-3 ovarian
[47] = test system: SN12C renal
[48] = test system: SNB-19 CNS
[49] = test system: SR leukemia
[50] = test system: SW-620 colon
[51] = test system: T-47D breast
[52] = test system: TK-10 renal
[53] = test system: U251 CNS
[54] = test system: UACC-257 melanoma
[55] = test system: UACC-62 melanoma
[56] = test system: MDA-MB-231 breast
[57] = test system: SK-MEL-2 melanoma
[58] = test system: SNB-75 CNS
[59] = test system: UO-31 renal

Question: What does the source list for `O=C(CSc1nc2sc3c(c2c(=O)n1-c1ccc(Cl)cc1)CCCC3)N/N=C/C=C/c1ccccc1`?
Answer: GI50 [1]: 5.51 µM; TGI [1]: 20.7 µM; GI50 [2]: 7.71 µM; TGI [2]: 25.4 µM; GI50 [3]: 3.58 µM; TGI [3]: 15.5 µM; GI50 [4]: 4.22 µM; TGI [4]: 29.2 µM; GI50 [5]: 3.15 µM; TGI [5]: 7.65 µM; GI50 [6]: 43.1 µM; TGI [6]: > 100 µM; GI50 [7]: 11.5 µM; TGI [7]: 69.9 µM; GI50 [8]: 1.71 µM; TGI [8]: 3.4 µM; GI50 [9]: 5.3 µM; TGI [9]: > 100 µM; GI50 [10]: 8.81 µM; TGI [10]: > 100 µM; GI50 [11]: 2.75 µM; TGI [11]: 7.05 µM; GI50 [12]: 3.03 µM; TGI [12]: 13 µM; GI50 [13]: 2.96 µM; TGI [13]: 10.4 µM; GI50 [14]: > 100 µM; TGI [14]: > 100 µM; GI50 [15]: 3.31 µM; TGI [15]: 13 µM; GI50 [16]: 3.91 µM; TGI [16]: 25.9 µM; GI50 [17]: 4.64 µM; TGI [17]: 56.5 µM; GI50 [18]: 2.61 µM; TGI [18]: 6.48 µM; GI50 [19]: 14.1 µM; TGI [19]: 35.7 µM; GI50 [20]: 4.68 µM; TGI [20]: > 100 µM; GI50 [21]: 16.7 µM; TGI [21]: 63.6 µM; GI50 [22]: 9.02 µM; TGI [22]: 22.2 µM; GI50 [23]: 3.44 µM; TGI [23]: 15 µM; GI50 [24]: 1.99 µM; TGI [24]: 4.85 µM; GI50 [25]: 3.35 µM; TGI [25]: 18.4 µM; GI50 [26]: 5.28 µM; TGI [26]: 22.5 µM; GI50 [27]: 1.85 µM; TGI [27]: 4.11 µM; GI50 [28]: 3.57 µM; TGI [28]: 12.9 µM; GI50 [29]: 5.19 µM; TGI [29]: 23 µM; GI50 [30]: 2.12 µM; TGI [30]: 5.78 µM; GI50 [31]: 3.14 µM; TGI [31]: 10.6 µM; GI50 [32]: 3.17 µM; TGI [32]: 12.6 µM; GI50 [33]: 3.58 µM; TGI [33]: 16 µM; GI50 [34]: 100 µM; TGI [34]: > 100 µM; GI50 [35]: 3.42 µM; TGI [35]: 15.9 µM; GI50 [36]: 4.87 µM; TGI [36]: 27.7 µM; GI50 [37]: 3.17 µM; TGI [37]: 11.7 µM; GI50 [38]: 3.04 µM; TGI [38]: 17.9 µM; GI50 [39]: 4.51 µM; TGI [39]: 34 µM; GI50 [40]: 1.93 µM; TGI [40]: 4.75 µM; GI50 [41]: 24.9 µM; TGI [41]: > 100 µM; GI50 [42]: 4.92 µM; TGI [42]: 22.4 µM; GI50 [43]: 24.6 µM; TGI [43]: > 100 µM; GI50 [44]: 4.23 µM; TGI [44]: 16.5 µM; GI50 [45]: 3.12 µM; TGI [45]: 10.8 µM; GI50 [46]: 14.2 µM; TGI [46]: 38.4 µM; GI50 [47]: 18 µM; TGI [47]: > 100 µM; GI50 [48]: 18.2 µM; TGI [48]: > 100 µM; GI50 [49]: 26.5 µM; TGI [49]: > 100 µM; GI50 [50]: 2.7 µM; TGI [50]: 8.75 µM; GI50 [51]: 2.39 µM; TGI [51]: 6.92 µM; GI50 [52]: 2.8 µM; TGI [52]: 9.84 µM; GI50 [53]: 3.3 µM; TGI [53]: 11.7 µM; GI50 [54]: 11.8 µM; TGI [54]: 87.8 µM; GI50 [55]: 2.84 µM; TGI [55]: 10.9 µM

Question: What does the source list for `Cc1ccc2c(c1)nc(-c1ccccc1)n2CC(=O)N=Nc1c(O)[nH]c2ccc(Cl)cc12`?
Answer: GI50 [2]: 1.91 µM; TGI [2]: 3.93 µM; GI50 [4]: 1.61 µM; TGI [4]: 3.31 µM; GI50 [6]: 2.18 µM; TGI [6]: 6.64 µM; GI50 [7]: 2.41 µM; TGI [7]: 52.9 µM; GI50 [8]: 2.67 µM; TGI [8]: 7 µM; GI50 [9]: 2.53 µM; TGI [9]: 5.8 µM; GI50 [10]: 1.61 µM; TGI [10]: 3.71 µM; GI50 [11]: 1.79 µM; TGI [11]: 3.47 µM; GI50 [12]: 2.48 µM; TGI [12]: 6.21 µM; GI50 [13]: 1.81 µM; TGI [13]: 3.57 µM; GI50 [14]: 4.62 µM; TGI [14]: 29.8 µM; GI50 [16]: 1.57 µM; TGI [16]: 3.76 µM; GI50 [17]: 2.09 µM; TGI [17]: 6.14 µM; GI50 [18]: 1.84 µM; TGI [18]: 3.76 µM; GI50 [19]: 1.69 µM; TGI [19]: 3.38 µM; GI50 [20]: 3.13 µM; TGI [20]: > 100 µM; GI50 [21]: 2.95 µM; TGI [21]: 9.49 µM; GI50 [22]: 1.57 µM; TGI [22]: 2.98 µM; GI50 [23]: 2.17 µM; TGI [23]: 4.77 µM; GI50 [24]: 1.87 µM; TGI [24]: 4.07 µM; GI50 [56]: 1.83 µM; TGI [56]: 3.52 µM; GI50 [26]: 2.38 µM; TGI [26]: 5.44 µM; GI50 [27]: 1.34 µM; TGI [27]: 2.77 µM; GI50 [28]: 2.39 µM; TGI [28]: 11.5 µM; GI50 [30]: 1.7 µM; TGI [30]: 3.35 µM; GI50 [32]: 1.67 µM; TGI [32]: 3.38 µM; GI50 [33]: 1.84 µM; TGI [33]: 3.55 µM; GI50 [35]: 2.37 µM; TGI [35]: 5.93 µM; GI50 [36]: 2.91 µM; TGI [36]: 9.28 µM; GI50 [39]: 2.78 µM; TGI [39]: 10.4 µM; GI50 [40]: 1.5 µM; TGI [40]: 3.04 µM; GI50 [41]: 2.36 µM; TGI [41]: 6.49 µM; GI50 [43]: 1.69 µM; TGI [43]: 3.29 µM; GI50 [57]: 10.5 µM; TGI [57]: 25 µM; GI50 [44]: 1.88 µM; TGI [44]: 3.52 µM; GI50 [45]: 2.01 µM; TGI [45]: 4.92 µM; GI50 [46]: 2.11 µM; TGI [46]: 4.44 µM; GI50 [47]: 1.78 µM; TGI [47]: 3.54 µM; GI50 [48]: 2.13 µM; TGI [48]: 5.55 µM; GI50 [58]: 1.52 µM; TGI [58]: 3.39 µM; GI50 [49]: 3.41 µM; TGI [49]: > 100 µM; GI50 [50]: 2.07 µM; TGI [50]: 4.43 µM; GI50 [51]: 1.94 µM; TGI [51]: 5.14 µM; GI50 [52]: 2.79 µM; TGI [52]: 7.18 µM; GI50 [54]: 1.86 µM; TGI [54]: 3.77 µM; GI50 [55]: 1.75 µM; TGI [55]: 3.45 µM; GI50 [59]: 1.38 µM; TGI [59]: 3.36 µM
